The nature of the data set: xn = mol fraction of the nth substance listed. Particulars: 298.15 K, 100 kPa.

The source of these data is a compilation of properties of binary mixtures (doi:10.1016/j.molliq.2022.118955).

In the case of `CCCC[n+]1ccn(C)c1.[I-]` + CCO, the electrical conductivity is, setting by setting: (x1 = 0.0198) 0.493 S/m; (x1 = 0.0392) 0.821 S/m; (x1 = 0.0676) 1.2 S/m; (x1 = 0.148) 1.69 S/m; (x1 = 0.2876) 1.53 S/m; (x1 = 0.4094) 1.1 S/m. Besides, the electrical conductivity (x1 = 1) came out at 0.0522 S/m.
`CC[n+]1ccn(C)c1.[I-]` + CCO yielded an electrical conductivity (x1 = 0.0104) of 0.33 S/m; an electrical conductivity (x1 = 0.0208) of 0.581 S/m; an electrical conductivity (x1 = 0.0477) of 1.15 S/m; an electrical conductivity (x1 = 0.0766) of 1.62 S/m; an electrical conductivity (x1 = 0.1141) of 2.09 S/m; an electrical conductivity (x1 = 0.1621) of 2.51 S/m. The electrical conductivity reads like this: (x1 = 0.2282) 2.75 S/m; (x1 = 0.3112) 2.76 S/m.
For `CCO` + CC[n+]1ccn(C)c1.[I-], the electrical conductivity (x2 = 0) came to 0.0001 S/m.
